# According to PubChem BioAssay AID330 (DTP/NCI, 2004):
# Several values for one entry are separate records, joined by “and”; a condition that tells them apart may be missing. Identical values can stand only once. Toxic doses and inconclusive results are not listed. Square brackets hold non-standard residues; d marks the D form. Peptide text beside a SMILES is read from it. * marks the point of attachment. ξ: configuration not given here. Ac5c = NC1(C(=O)O)CCCC1; Cbz = O=C(OCc1ccccc1)*; ξV = CC(C)C(N)C(=O)O
# System: P388 leukemia ip, CD2F1 mice, survival T/C
# Assay: NCI In Vivo Anticancer Drug Screen. Data for tumor model P388 Leukemia (intraperitoneal) in CD2F1 (CDF1) mice
# Conditions: endpoint: median survival time, higher = longer survival
# Method in brief: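 Mice carrying the transplanted tumor received test compound or vehicle. Survival was recorded in each group, and the value is the treated-group measurement divided by that of the vehicle-treated control group.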
# [1] = dose: 50.0 mg/kg/injection, schedule: Q01DX009 (ip), vehicle: saline with Tween-80
# [2] = dose: 100.0 mg/kg/injection, schedule: Q01DX009 (ip), vehicle: saline with Tween-80
# [3] = dose: 50.0 mg/kg/injection, schedule: Q01DX009 (ip), vehicle: Klucel (hydroxypropylcellulose) (HPC)
# [4] = dose: 100.0 mg/kg/injection, schedule: Q01DX009 (ip), vehicle: Klucel (hydroxypropylcellulose) (HPC)
structure (smiles),measurement,setting,value
O=C(O)CNC(CO)C(=O)O (stereo unspecified),T/C,"dose: 25.0 mg/kg/injection, schedule: Q01DX005 (ip), vehicle: water",100 % of control
same,T/C,"dose: 50.0 mg/kg/injection, schedule: Q01DX005 (ip), vehicle: water",100 % of control
same,T/C,"dose: 100.0 mg/kg/injection, schedule: Q01DX005 (ip), vehicle: water",95 % of control
same,T/C,"dose: 200.0 mg/kg/injection, schedule: Q01DX005 (ip), vehicle: water",89 % of control
CCOC(=O)Oc1ccc(/C=N/NC(N)=S)nc1,T/C,[1],163 % of control
same,T/C,[2],93 % of control
CC(C)C(NC(=O)C1(NC(=O)OCc2ccccc2)CCCC1)C(=O)O (stereo unspecified) (Cbz-[Ac5c]-[ξV]-OH),T/C,"dose: 50.0 mg/kg/injection, schedule: Q01DX005 (ip), vehicle: saline with Tween-80",99 % of control
same,T/C,"dose: 100.0 mg/kg/injection, schedule: Q01DX005 (ip), vehicle: saline with Tween-80",96 % of control
same,T/C,"dose: 200.0 mg/kg/injection, schedule: Q01DX005 (ip), vehicle: saline with Tween-80",99 % of control
COc1cc(C(=O)C[n+]2ccccc2)ccc1O,T/C,"dose: 50.0 mg/kg/injection, schedule: Q04DX003 (ip), vehicle: saline with Tween-80",100 % of control
same,T/C,"dose: 100.0 mg/kg/injection, schedule: Q04DX003 (ip), vehicle: saline with Tween-80",100 % of control
same,T/C,"dose: 200.0 mg/kg/injection, schedule: Q04DX003 (ip), vehicle: saline with Tween-80",100 % of control
COc1ccc2c(c1)CSCC2=O,T/C,[3],98 % of control
same,T/C,[4],98 % of control
same,T/C,"dose: 200.0 mg/kg/injection, schedule: Q01DX009 (ip), vehicle: Klucel (hydroxypropylcellulose) (HPC)",100 % of control
Cc1cc2c(C)c(-c3ccccc3)c(=O)oc2c(C#N)c1C,T/C,"dose: 15.0 mg/kg/injection, schedule: Q01DX005 (ip), vehicle: Klucel (hydroxypropylcellulose) (HPC)",104 % of control
same,T/C,"dose: 30.0 mg/kg/injection, schedule: Q01DX005 (ip), vehicle: Klucel (hydroxypropylcellulose) (HPC)",95 % of control
same,T/C,"dose: 60.0 mg/kg/injection, schedule: Q01DX005 (ip), vehicle: Klucel (hydroxypropylcellulose) (HPC)",90 % of control and 95 % of control
O=C1C(=O)c2cccnc2-c2ncccc21,T/C,"dose: 1.56 mg/kg/injection, schedule: Q01DX005 (ip), vehicle: Klucel (hydroxypropylcellulose) (HPC)",115 % of control
same,T/C,"dose: 3.12 mg/kg/injection, schedule: Q01DX005 (ip), vehicle: Klucel (hydroxypropylcellulose) (HPC)",106 % of control
same,T/C,"dose: 6.25 mg/kg/injection, schedule: Q01DX005 (ip), vehicle: Klucel (hydroxypropylcellulose) (HPC)",115 % of control
O=C1NC(=O)c2ccc3c4c(ccc1c24)C(=O)NC3=O,T/C,"dose: 15.5 mg/kg/injection, schedule: Q01DX009 (ip), vehicle: saline with Tween-80",95 % of control
same,T/C,"dose: 31.0 mg/kg/injection, schedule: Q01DX009 (ip), vehicle: saline with Tween-80",95 % of control
same,T/C,"dose: 62.0 mg/kg/injection, schedule: Q01DX009 (ip), vehicle: saline with Tween-80",91 % of control
C[N+]1(C)CCc2c([nH]c3ccccc23)C1,T/C,"dose: 100.0 mg/kg/injection, schedule: Q01DX001 (ip), vehicle: suspension in saline",95 % of control
same,T/C,"dose: 200.0 mg/kg/injection, schedule: Q01DX001 (ip), vehicle: suspension in saline",107 % of control
NC(=O)c1nnn(-c2ccccc2)n1,T/C,"dose: 100.0 mg/kg/injection, schedule: Q04DX003 (ip), vehicle: Klucel (hydroxypropylcellulose) (HPC)",105 % of control
same,T/C,"dose: 200.0 mg/kg/injection, schedule: Q04DX003 (ip), vehicle: Klucel (hydroxypropylcellulose) (HPC)",99 % of control
same,T/C,"dose: 400.0 mg/kg/injection, schedule: Q04DX003 (ip), vehicle: Klucel (hydroxypropylcellulose) (HPC)",89 % of control
O=C1OC(=O)C2C3C=CC(C4C=C(C5CC5)C43)C12 (stereo unspecified),T/C,"dose: 100.0 mg/kg/injection, schedule: Q04DX003 (ip), vehicle: saline",102 % of control
same,T/C,"dose: 200.0 mg/kg/injection, schedule: Q04DX003 (ip), vehicle: saline",107 % of control
same,T/C,"dose: 400.0 mg/kg/injection, schedule: Q04DX003 (ip), vehicle: saline",111 % of control
CN(C)P1(=O)OCC(C(C)(C)C)CN1C (stereo unspecified),T/C,[3],100 % of control
same,T/C,[4],107 % of control
O=C(O)COc1ccc(-c2ccc(Br)cc2)cc1,T/C,"dose: 12.5 mg/kg/injection, schedule: Q01DX009 (ip), vehicle: saline with Tween-80",91 % of control
same,T/C,"dose: 25.0 mg/kg/injection, schedule: Q01DX009 (ip), vehicle: saline with Tween-80",97 % of control
same,T/C,[1],103 % of control
C=C(c1ccc(OC)cc1)c1ccc(OC)cc1,T/C,[1],103 % of control
same,T/C,[2],105 % of control
same,T/C,"dose: 200.0 mg/kg/injection, schedule: Q01DX009 (ip), vehicle: saline with Tween-80",102 % of control
COC(=O)/C(=C/C=C(c1ccccc1)c1ccccc1)N(C(C)=O)C(C)=O,T/C,"dose: 100.0 mg/kg/injection, schedule: Q01DX001 (ip), vehicle: saline with Tween-80",104 % of control
same,T/C,"dose: 200.0 mg/kg/injection, schedule: Q01DX001 (ip), vehicle: saline with Tween-80",104 % of control
same,T/C,"dose: 400.0 mg/kg/injection, schedule: Q01DX001 (ip), vehicle: saline with Tween-80",96 % of control
CS(=O)CC1=NC(=N)N=C1CS(C)=O (stereo unspecified),T/C,"dose: 60.0 mg/kg/injection, schedule: Q01DX005 (ip), vehicle: saline",100 % of control
same,T/C,"dose: 120.0 mg/kg/injection, schedule: Q01DX005 (ip), vehicle: saline",102 % of control
same,T/C,"dose: 240.0 mg/kg/injection, schedule: Q01DX005 (ip), vehicle: saline",100 % of control
